Measurements published in patent publication US20230414626A1, “INDUCTION OF FERROPTOSIS FOR CANCER THERAPY” (Memorial Sloan Kettering Cancer Center, priority 2020, published 2023).

What was measured:
MDA-MB-453 cells = assay: Measurement of lipid peroxidation (BODIPY C11, flow cytometry); format: cell-based, human; conditions: with RSL3
Description: (§1) FIG. 2 A-E. mTORC1, instead of mTORC2, suppresses ferroptosis. (A) MDA-MB-453 and BT474 were treated with CCI-779 (0.5 μM), RSL3 (1 μM for MDA-MB-453 cells and 0.5 μM for BT474 cells), and Fer-1 (1 μM) as indicated. (B) Cells were seeded in 6-well plate, 4×10^5 cells per well and incubated overnight. MDA-MB-453 and BT474 cells were treated as indicated. CCI-779, 0.5 μM; RSL3, 1 μM for MDA-MB-453 cells and 0.5 μM for BT474 cells; Fer-1, 1 μM. Cells were stained with 5 μM C1I-BODIPY followed by flow cytometry after 8 h-treatment. (C) 3D spheroids were treated as indicated. CCI-779, 0.5 μM; RSL3, 0.5 μM; Fer-1, 1 μM. Top panel, dead cells were stained by SYTOX Green (scale bar, 100 μm). Bottom panel, cell viability was assayed by measuring cellular ATP levels. (D) Cells expressing shRNAs targeting RPTOR or RICTOR were treated as indicated. CCI-779, 0.5 μM; RSL3, 0.5 μM; Fer-1, 1 μM. (E) Lipid peroxidation of samples as in panel D were measured.
(§2) FIG. 7 A-J. PI3K-AKT-mTOR signaling regulates ferroptosis sensitivity. (A) Cells were treated as indicated. GDC-0941, 2 μM; MK-2206, 2 μM; RSL3, 1 μM; Fer-1, 1 μM. Lipid peroxidation was measured. (B) Cells were treated with indicated conditions. Torin, 1 μM; RSL3, 1 μM for MDA-MB-453 cells and 0.5 μM for BT474 cells; Fer-1, 1 μM. Cell death was measured. (C) Cells were treated with indicated conditions. RSL3, 10 μM for MCF cells and PC-3 cells, 5 μM for T47D cells, 1 μM for HepG2 cells; Torin, 1 μM; CCI-779, 0.5 μM. (D) Cells were treated as indicated. CCI-779, 0.5 μM; Torin, 1 μM; Fer-1, 1 μM. Cell death was staining by propidium iodide (PI) (red) or Sytox Green (green) (scale bar, 100 μm). (E-F) 3D spheroids for MDA-MB-453 cells and MCF7 cells were treated as indicated. CCI-779, 0.5 μM; RSL3, 1 μM for MDA-MB-453 cells and 5 μM for MCF7 cells; Fer-1, 1 μM. Top panels, cell death staining (scale bar, 100 m). Bottom panels, cell viability. (G) MDA-MB-453 cells were treated as indicated for 24 h. RSL3, 1 μM; CCI-779, 0.5 μM; GDC-0941, 2 μM; MK-2206, 2 μM; Dabrafenib, 2 μM; SCH772984, 2 μM; Fer-1, 1 μM. (H) Western blot was performed to detect RPTOR and RICTOR knockdown efficiency. (I) HT1080 cells and MDA-MB-231 cells (both with wild-type PI3K-AKT-mTOR pathway) were treated as indicated. RSL3, 0.1 μM for HT1080 and 0.25 μM for MDA-MB-231; Torin, 1 μM; CCI-779, 0.5 μM; Fer-1, 1 μM. Cell death was measured. (J) Two lines of PI3K-AKT-mTOR pathway wild-type cells (HT1080 and MDA-MB-231) and two lines of cells harboring activating mutation of the pathway (BT474 and MDA-MB-453) were treated as indicated. RSL3, 0.25 μM; Fer-1, 1 μM. Western blot was performed to detect the level of pT389 S6K.
(§3) FIG. 11 A-H. SCD1 protects cells against ferroptosis. (A) Cells were pretreated cells with 5 μM CAY10566 overnight. Cells were treated as indicated. RSL3, 1 μM for MDA-MB-453 and 0.5 μM for BT474; Fer-1, 1 μM; CAY10566, 5 μM; Fer-1, 1 μM. (B) Western blot, measuring the SCD knockout efficiency in BT474, MDA-MB-453 and MCF7 cells. (C) MCF cells (sgCtrl, sgSCD #1 and sgSCD #2) were treated as indicated. RSL3, 5 μM; Fer-1, 1 μM. (D) Cells were treated as indicated. RSL3, 1 μM for MDA-MB-453 cells and 0.5 μM for BT474 cells; Fer-1, 1 μM. (E) Cells were treated as indicated. RSL3, 1 μM for MDA-MB-453 cells and 0.5 μM for BT474 cells; Fer-1, 1 μM; CCI-779, 0.5 μM; GDC-0941, 2 μM; MK-2206, 2 μM. (F) SCD1 was overexpressed in BT474 cells. Cells were treated as indicated. RSL3, 0.5 μM; CCI-779, 0.5 μM. Lipid peroxidation was measured. (G) SCD1 was overexpressed in A549 cells and determined by western blot. Cells were treated as indicated. RSL3, 0.25 μM; CCI-779, 0.5 μM. Lipid peroxidation and cell death were measured 6 h and 24 h after treatment, respectively. (H) SCD1 was overexpressed in BT474 cells harboring SREBF1 knockout. SCD1 and SREBP1 level were determined by western blot. Cells were treated as indicated. RSL3, 0.5 μM; CCI-779, 0.5 μM; Fer-1, 1 μM.
(§4) Lipid peroxidation was analyzed by flow cytometry. […]

BT474 cells = assay: as above; format: cell-based, human; conditions: with RSL3
Description: as §1, §2, §3, §4

| SMILES | sensitization to lipid peroxidation (MDA-MB-453 cells) | sensitization to lipid peroxidation (BT474 cells) |
| --- | --- | --- |
| Cc1nnc(-c2ccc(N3CCC(Oc4cc(F)ccc4Cl)CC3)nn2)o1 [CAY10566] | sensitized the effect of RSL3 | sensitized the effect of RSL3 |
| CO[C@H]1C[C@@H]2CC[C@@H](C)[C@@](O)(O2)C(=O)C(=O)N2CCCC[C@H]2C(=O)O[C@H]([C@H](C)C[C@@H]2CC[C@@H](OC(=O)C(C)(CO)CO)[C@H](OC)C2)CC(=O)[C@H](C)/C=C(\C)[C@@H](O)[C@@H](OC)C(=O)[C@H](C)C[C@H](C)/C=C/C=C/C=C/1C [CCI-779, Temsirolimus] | sensitize | sensitize |
| CCCc1cc(-c2nc(-c3ccc(C)cc3)cs2)ccn1 [Fatostatin A] | sensitized | sensitized |
| CS(=O)(=O)N1CCN(Cc2cc3nc(-c4cccc5[nH]ncc45)nc(N4CCOCC4)c3s2)CC1 [GDC-0941] | sensitized | sensitized |
| NC1(c2ccc(-c3nc4ccn5c(=O)[nH]nc5c4cc3-c3ccccc3)cc2)CCC1 [MK-2206] | sensitized | sensitized |
